The results in this text go back to PubChem BioAssay AID330 (DTP/NCI, 2004).

Inconclusive results and toxic doses are left out.

For the test, the system named is P388 leukemia ip, CD2F1 mice, survival T/C. Nature of the test: NCI In Vivo Anticancer Drug Screen. Data for tumor model P388 Leukemia (intraperitoneal) in CD2F1 (CDF1) mice. Conditions: endpoint: median survival time, higher = longer survival. In short, it runs like this: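 Mice carrying the transplanted tumor received test compound or vehicle. Survival was recorded in each group, and the value is the treated-group measurement divided by that of the vehicle-treated control group.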

The mark [1] stands for this setting: dose: 25.0 mg/kg/injection, schedule: Q01DX001 (ip), vehicle: Klucel (hydroxypropylcellulose) (HPC).
[2] abbreviates: dose: 50.0 mg/kg/injection, schedule: Q01DX001 (ip), vehicle: Klucel (hydroxypropylcellulose) (HPC).
The mark [3] stands for this setting: dose: 100.0 mg/kg/injection, schedule: Q01DX001 (ip), vehicle: Klucel (hydroxypropylcellulose) (HPC).
[4] abbreviates: dose: 60.0 mg/kg/injection, schedule: Q01DX005 (ip), vehicle: saline with Tween-80.
[5] abbreviates: dose: 120.0 mg/kg/injection, schedule: Q01DX005 (ip), vehicle: saline with Tween-80.
Setting [6] is: dose: 240.0 mg/kg/injection, schedule: Q01DX005 (ip), vehicle: saline with Tween-80.
[7] abbreviates: dose: 50.0 mg/kg/injection, schedule: Q01DX005 (ip), vehicle: saline with Tween-80.
The mark [8] stands for this setting: dose: 100.0 mg/kg/injection, schedule: Q01DX005 (ip), vehicle: saline with Tween-80.
Setting [9] is: dose: 200.0 mg/kg/injection, schedule: Q01DX005 (ip), vehicle: saline with Tween-80.
Setting [10] is: dose: 50.0 mg/kg/injection, schedule: Q01DX009 (ip), vehicle: saline with Tween-80.
Where [11] appears, read: dose: 100.0 mg/kg/injection, schedule: Q01DX009 (ip), vehicle: saline with Tween-80.
Where [12] appears, read: dose: 6.25 mg/kg/injection, schedule: Q01DX001 (ip), vehicle: Klucel (hydroxypropylcellulose) (HPC).
The mark [13] stands for this setting: dose: 200.0 mg/kg/injection, schedule: Q01DX001 (ip), vehicle: Klucel (hydroxypropylcellulose) (HPC).

With `N#CCCSC(=S)C1CCCCC1=N` (stereo unspecified), the T/C is 109 % of control (dose: 50.0 mg/kg/injection, schedule: Q01DX009 (ip), vehicle: saline + alcohol); 111 % of control (dose: 100.0 mg/kg/injection, schedule: Q01DX009 (ip), vehicle: saline + alcohol); 109 % of control (dose: 200.0 mg/kg/injection, schedule: Q01DX009 (ip), vehicle: saline + alcohol).

In the case of `Cc1cccc(N=Nc2c(-c3ccccc3)nn(C(N)=S)c2C)c1C`, the T/C (dose: 100.0 mg/kg/injection, schedule: Q04DX002 (ip), vehicle: Klucel (hydroxypropylcellulose) (HPC)) is 94 % of control; the T/C (dose: 200.0 mg/kg/injection, schedule: Q04DX002 (ip), vehicle: Klucel (hydroxypropylcellulose) (HPC)) was 105 % of control; the T/C (dose: 400.0 mg/kg/injection, schedule: Q04DX002 (ip), vehicle: Klucel (hydroxypropylcellulose) (HPC)) is 94 % of control.

In the case of `Cc1ccccc1N=Nc1c(O)n(-c2ccccc2Cl)c(=S)n(-c2ccccc2)c1=O`, the T/C under setting [1] was 102 % of control, the T/C under setting [2] is 104 % of control and the T/C under setting [3] is 101 % of control.

Take `CC1(CBr)C2CCC1C(=O)C2` (stereo unspecified): the T/C was 100 % of control (dose: 6.25 mg/kg/injection, schedule: Q01DX005 (ip), vehicle: saline with Tween-80); 96 % of control (dose: 12.5 mg/kg/injection, schedule: Q01DX005 (ip), vehicle: saline with Tween-80); 96 % of control (dose: 25.0 mg/kg/injection, schedule: Q01DX005 (ip), vehicle: saline with Tween-80).

Turning to `Clc1ccc2ccc3ccc(Cl)nc3c2n1`, the T/C is 92 % of control under setting [4], 89 % of control under setting [5] and 92 % of control under setting [6].

Turning to `Cc1[nH]c2cc(Br)ccc2c1/C=N/NC(N)=S`, the T/C under setting [3] is 107 % of control.

Turning to `CSC1=NC=C(C#N)C2=NC(c3ccccc3)NN12` (stereo unspecified), the T/C reads like this: under setting [7], 98 % of control; under setting [8], 97 % of control; under setting [9], 100 % of control.

Consider `Nc1cccc(C(=O)c2ccc(N)c(N)c2)c1`, for which the T/C runs as follows: under setting [4], 90 % of control; under setting [5], 92 % of control.

With `O=S(=O)(O)c1ccc2nccn2c1`, the T/C (dose: 100.0 mg/kg/injection, schedule: Q01DX001 (ip), vehicle: suspension in saline) is 100 % of control; the T/C (dose: 200.0 mg/kg/injection, schedule: Q01DX001 (ip), vehicle: suspension in saline) is 89 % of control; the T/C (dose: 400.0 mg/kg/injection, schedule: Q01DX001 (ip), vehicle: suspension in saline) was 100 % of control.

For `CC(C)(C)/[N+]([O-])=C/C(c1ccccc1)C(/C=[N+](/[O-])C(C)(C)C)c1ccccc1` (stereo unspecified), the T/C by setting is: under setting [4], 100 % of control; under setting [5], 98 % of control; under setting [6], 98 % of control.

Consider `CCCCC1SC2=NCCCN2C1(O)c1ccc(Cl)cc1` (stereo unspecified), for which the T/C under setting [10] was 105 % of control and the T/C under setting [11] is 106 % of control.

Turning to `COC(=O)C1=COC(C)C2CN3CCc4c([nH]c5cc(OC)ccc45)C3CC12` (stereo unspecified), the T/C is, setting by setting: under setting [7], 91 % of control; under setting [8], 109 % of control; under setting [9], 109 % of control.

Turning to `CC1=N[C@@H](C(=O)NCC(N)=O)Cc2c1[nH]c1ccccc21`, the T/C is, setting by setting: under setting [4], 98 % of control; under setting [5], 93 % of control; under setting [6], 93 % of control.

Take `SC1(S)CN2CCC1CC2`: the T/C by setting is: (dose: 6.25 mg/kg/injection, schedule: Q01DX009 (ip), vehicle: saline) 104 % of control; (dose: 12.5 mg/kg/injection, schedule: Q01DX009 (ip), vehicle: saline) 100 % of control.

Take `c1ccc2c(c1)N=C(NNC1=Nc3ccccc3SC1)CS2`: the T/C was 95 % of control (dose: 15.0 mg/kg/injection, schedule: Q01DX005 (ip), vehicle: saline with Tween-80); 92 % of control (dose: 30.0 mg/kg/injection, schedule: Q01DX005 (ip), vehicle: saline with Tween-80); 88 % of control under setting [4].

Regarding `O=[N+]([O-])C(Br)(CO)CCC(Br)(CO)[N+](=O)[O-]` (stereo unspecified), the T/C reads like this: under setting [12], 111 % of control; (dose: 12.5 mg/kg/injection, schedule: Q01DX001 (ip), vehicle: Klucel (hydroxypropylcellulose) (HPC)) 104 % of control; under setting [1], 107 % of control.

For `CCN(CC)c1ccc(/C=N\Nc2ccc([N+](=O)[O-])cn2)cc1`, the T/C under setting [7] was 93 % of control, the T/C under setting [8] is 90 % of control and the T/C under setting [9] was 87 % of control.

As for `CCN(CCCN(C)C)c1ccc(/C=C/c2ccnc3ccccc23)cc1`, the T/C (dose: 100.0 mg/kg/injection, schedule: Q01DX009 (ip), vehicle: saline) is 108 % of control.

For the compound `CC(C)(C=C(c1ccccc1)c1ccccc1)C=C(c1ccccc1)c1ccccc1`, the T/C was 95 % of control under setting [7], 98 % of control under setting [8] and 95 % of control under setting [9].

In the case of `Clc1ccccc1/C=C/C=C1c2ccccc2-c2ccccc21`, the T/C (dose: 12.5 mg/kg/injection, schedule: Q01DX009 (ip), vehicle: saline with Tween-80) is 90 % of control; the T/C (dose: 25.0 mg/kg/injection, schedule: Q01DX009 (ip), vehicle: saline with Tween-80) is 104 % of control; the T/C under setting [10] is 113 % of control; the T/C (dose: 100.0 mg/kg/injection, schedule: Q04DX003 (ip), vehicle: saline with Tween-80) was 95 % of control; the T/C (dose: 200.0 mg/kg/injection, schedule: Q04DX003 (ip), vehicle: saline with Tween-80) was 109 % of control; the T/C (dose: 400.0 mg/kg/injection, schedule: Q04DX003 (ip), vehicle: saline with Tween-80) is 109 % of control.

Regarding `O=[N+]([O-])c1ccc(-c2noc(-c3cccs3)n2)cc1`, the T/C (dose: 60.0 mg/kg/injection, schedule: Q01DX005 (ip), vehicle: Klucel (hydroxypropylcellulose) (HPC)) was 95 % of control; the T/C (dose: 120.0 mg/kg/injection, schedule: Q01DX005 (ip), vehicle: Klucel (hydroxypropylcellulose) (HPC)) was 101 % of control; the T/C (dose: 240.0 mg/kg/injection, schedule: Q01DX005 (ip), vehicle: Klucel (hydroxypropylcellulose) (HPC)) is 97 % of control.

Regarding `CCCC1OCC(O)C(C(O)C(=O)CN(C)c2ccccc2)O1` (stereo unspecified), the T/C runs as follows: under setting [7], 98 % of control; under setting [8], 100 % of control; under setting [9], 98 % of control.

`FC1OC1(F)C12CC3CC(CC(C3)C1)C2` (stereo unspecified): the T/C (dose: 50.0 mg/kg/injection, schedule: Q01DX009 (ip), vehicle: Klucel (hydroxypropylcellulose) (HPC)) is 106 % of control; the T/C (dose: 100.0 mg/kg/injection, schedule: Q01DX009 (ip), vehicle: Klucel (hydroxypropylcellulose) (HPC)) is 106 % of control; the T/C (dose: 200.0 mg/kg/injection, schedule: Q01DX009 (ip), vehicle: Klucel (hydroxypropylcellulose) (HPC)) is 105 % of control.

As for `N#CN=[N+]([O-])c1ccc([N+](=O)[O-])cc1`, the T/C is 101 % of control (dose: 1.56 mg/kg/injection, schedule: Q01DX001 (ip), vehicle: Klucel (hydroxypropylcellulose) (HPC)); 99 % of control (dose: 3.12 mg/kg/injection, schedule: Q01DX001 (ip), vehicle: Klucel (hydroxypropylcellulose) (HPC)); 110 % of control under setting [12]; 101 % of control (dose: 6.25 mg/kg/injection, schedule: Q04DX003 (ip), vehicle: Klucel (hydroxypropylcellulose) (HPC)).

In the case of `Nc1nc(N)c2cc(S(=O)(=O)c3cccc(C(F)(F)F)c3)ccc2n1`, the T/C is 113 % of control under setting [10]; 117 % of control under setting [11]; 106 % of control (dose: 200.0 mg/kg/injection, schedule: Q01DX009 (ip), vehicle: saline with Tween-80).

For `CCOC(=O)/C(C#N)=C/Nc1cc(C(=O)OC)ccc1C`, the T/C reads like this: under setting [7], 88 % of control; under setting [8], 90 % of control.

Regarding `c1ccc2c(c1)[nH]c1cc3c(cc12)CCCCC3`, the T/C was 107 % of control under setting [4], 91 % of control under setting [5] and 97 % of control under setting [6].

In the case of `Cc1ccccc1N=Nc1ccc(N(CCCl)CCCl)cc1`, the T/C was 100 % of control under setting [2], 115 % of control under setting [3] and 100 % of control under setting [13].

In the case of `CCCC1(c2ccccc2)CC(=O)NC1=O` (stereo unspecified), the T/C is, setting by setting: (dose: 60.0 mg/kg/injection, schedule: Q01DX005 (ip), vehicle: saline) 98 % of control; (dose: 120.0 mg/kg/injection, schedule: Q01DX005 (ip), vehicle: saline) 98 % of control; (dose: 240.0 mg/kg/injection, schedule: Q01DX005 (ip), vehicle: saline) 102 % of control.

`CN(C)/N=C(\N)c1nnn(C)n1`: the T/C is, setting by setting: under setting [2], 106 % of control; under setting [3], 101 % of control; under setting [13], 100 % of control.
